Experimental data published in article PMC11143312, “Antioxidant, anti-amylase, anti-lipase, and efficiency of Satureja fatty acid on the anti-inflammatory parameters in lipopolysaccharide-stimulated macrophage through Nrf2/NF-kB/NADH oxidase pathway” (Scientific Reports, 2024).
≈ marks a conversion by molar mass, not a printed value.

Assays:
[1] = target: T1, lipase (EC 3.1.1.3, from Saccharomyces cerevisiae); experiment: p-nitrophenyl butyrate hydrolysis, absorbance at […] nm; format: biochemical; conditions: 30 min pre-incubation, 37 °C; substrate pNPB; positive control
T1 construct: gene TGL2; discussion speaks of pancreatic lipase, but the assay used the yeast-labelled enzyme

[2] = system: T1, lipase (EC 3.1.1.3, from Saccharomyces cerevisiae); experiment: pNPB hydrolysis at […] nm, Lineweaver-Burk plot; format: biochemical; conditions: no inhibitor; unit printed as µg, not a concentration; pNPB 0.0–10 mg/mL

Compound	IC50 [1] [µg/mL]	Km [2] [µg]
CCCCCCCCCCC[C@@H](C[C@@H]1OC(=O)[C@H]1CCCCCC)OC(=O)[C@H](CC(C)C)NC=O [orlistat]	213 ± 5.0 (≈ 430 µM)	–
CCCC(=O)Oc1ccc([N+](=O)[O-])cc1 [p-nitrophenyl butyrate]	–	5.08 ± 0.23
